This is an account of results in US20250361230A1, “LATS Inhibitors and Uses Thereof” (The USA, as Represented by the Secretary, Dept. of Heath …, priority 2022, published 2025).

Like-named read-outs stand apart in the source and are kept apart here.

Holding throughout (format): biochemical
One test concerns the target AKT (Homo sapiens, UniProt P31749). In words: RBC HotSpot kinase assay (33P-ATP, P81 filter-binding), AKT. To be noted: read-out: AKT IC50. An outline of the steps:
(§1)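 Kinase in Hepes pH 7.5 buffer with Mg2+, EGTA, Brij35, BSA, vanadate, DTT and 1% DMSO, plus required cofactors and substrate, was preincubated 20 min at room temperature with compound. Reaction was started with 33P-ATP and run 2 h, then detected by P81 filter binding. IC50 (nM) came from 10-point singlet curves.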

A further test addresses T1, LATS2 (Homo sapiens, UniProt Q9NRM7).
T1 sequence (Q9NRM7 1-1088): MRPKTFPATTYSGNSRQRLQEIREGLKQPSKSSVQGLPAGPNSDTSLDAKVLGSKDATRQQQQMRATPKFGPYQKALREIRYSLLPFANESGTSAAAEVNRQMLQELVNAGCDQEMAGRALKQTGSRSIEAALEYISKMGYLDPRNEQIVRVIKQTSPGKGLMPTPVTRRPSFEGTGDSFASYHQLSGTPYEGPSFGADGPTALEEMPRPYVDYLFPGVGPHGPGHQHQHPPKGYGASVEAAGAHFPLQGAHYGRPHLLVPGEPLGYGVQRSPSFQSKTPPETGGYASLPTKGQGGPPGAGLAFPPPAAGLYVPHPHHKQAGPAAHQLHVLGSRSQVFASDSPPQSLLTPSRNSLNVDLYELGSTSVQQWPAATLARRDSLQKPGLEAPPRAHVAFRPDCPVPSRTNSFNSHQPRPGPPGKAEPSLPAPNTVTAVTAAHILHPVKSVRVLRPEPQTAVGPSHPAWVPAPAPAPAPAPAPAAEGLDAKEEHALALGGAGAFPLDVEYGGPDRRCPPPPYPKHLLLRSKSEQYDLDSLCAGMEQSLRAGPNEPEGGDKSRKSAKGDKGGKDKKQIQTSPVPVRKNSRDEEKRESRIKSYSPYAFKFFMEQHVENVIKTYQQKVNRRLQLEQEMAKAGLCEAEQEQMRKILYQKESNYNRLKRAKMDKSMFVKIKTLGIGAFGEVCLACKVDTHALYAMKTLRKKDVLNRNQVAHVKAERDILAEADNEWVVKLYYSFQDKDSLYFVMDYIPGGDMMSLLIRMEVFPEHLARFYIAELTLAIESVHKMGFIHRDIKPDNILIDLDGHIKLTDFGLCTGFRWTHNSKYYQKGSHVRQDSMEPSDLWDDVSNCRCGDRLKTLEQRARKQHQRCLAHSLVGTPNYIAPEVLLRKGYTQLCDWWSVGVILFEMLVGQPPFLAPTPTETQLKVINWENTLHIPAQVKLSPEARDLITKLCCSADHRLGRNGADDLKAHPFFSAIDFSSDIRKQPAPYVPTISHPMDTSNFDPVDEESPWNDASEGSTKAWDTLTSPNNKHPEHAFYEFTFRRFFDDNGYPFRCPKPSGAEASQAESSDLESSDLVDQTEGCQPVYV
In words: RBC HotSpot kinase assay (33P-ATP, P81 filter-binding), LATS2. To be noted: read-out: LATS2 IC50. The essentials: as §1

The target in another test is T2, LATS1 (Homo sapiens, UniProt O95835).
T2 sequence (O95835 1-1130): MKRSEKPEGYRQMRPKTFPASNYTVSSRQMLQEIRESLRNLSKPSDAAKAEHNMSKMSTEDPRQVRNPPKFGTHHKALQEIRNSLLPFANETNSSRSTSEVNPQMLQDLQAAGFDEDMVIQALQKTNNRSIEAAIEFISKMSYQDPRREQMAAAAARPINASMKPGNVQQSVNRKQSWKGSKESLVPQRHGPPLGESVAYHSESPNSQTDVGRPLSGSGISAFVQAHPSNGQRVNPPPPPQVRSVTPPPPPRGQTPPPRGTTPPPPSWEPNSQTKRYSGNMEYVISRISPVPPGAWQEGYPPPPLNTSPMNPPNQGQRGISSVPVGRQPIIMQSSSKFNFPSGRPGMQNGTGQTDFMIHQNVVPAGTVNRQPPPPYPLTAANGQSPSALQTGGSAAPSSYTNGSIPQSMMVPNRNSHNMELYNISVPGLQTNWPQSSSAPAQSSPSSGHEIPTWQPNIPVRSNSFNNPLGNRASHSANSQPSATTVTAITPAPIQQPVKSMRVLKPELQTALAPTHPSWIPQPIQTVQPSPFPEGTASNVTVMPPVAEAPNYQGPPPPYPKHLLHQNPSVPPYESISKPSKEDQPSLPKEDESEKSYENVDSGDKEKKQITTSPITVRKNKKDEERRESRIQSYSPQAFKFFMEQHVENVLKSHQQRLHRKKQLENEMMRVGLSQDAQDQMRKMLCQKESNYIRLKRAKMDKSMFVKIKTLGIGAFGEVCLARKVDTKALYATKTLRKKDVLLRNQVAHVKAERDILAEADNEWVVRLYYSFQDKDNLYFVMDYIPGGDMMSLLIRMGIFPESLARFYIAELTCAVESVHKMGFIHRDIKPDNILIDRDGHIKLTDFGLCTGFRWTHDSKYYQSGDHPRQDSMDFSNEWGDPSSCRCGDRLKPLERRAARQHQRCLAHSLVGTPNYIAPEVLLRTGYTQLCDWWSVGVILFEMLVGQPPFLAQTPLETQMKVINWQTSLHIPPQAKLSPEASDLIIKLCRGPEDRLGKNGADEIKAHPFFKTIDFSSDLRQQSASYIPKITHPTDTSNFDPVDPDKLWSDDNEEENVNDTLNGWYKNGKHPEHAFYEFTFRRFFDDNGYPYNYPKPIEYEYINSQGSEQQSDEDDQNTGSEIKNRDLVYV
In words: RBC HotSpot kinase assay (33P-ATP, P81 filter-binding), LATS1. To be noted: read-out: LATS1 IC50. The essentials: as §1

Where [1] appears, read: Table 28, biochemical kinase assay.
[2] abbreviates: Table 32, biochemical kinase assay.

Chain of AKT (P31749 whole entry): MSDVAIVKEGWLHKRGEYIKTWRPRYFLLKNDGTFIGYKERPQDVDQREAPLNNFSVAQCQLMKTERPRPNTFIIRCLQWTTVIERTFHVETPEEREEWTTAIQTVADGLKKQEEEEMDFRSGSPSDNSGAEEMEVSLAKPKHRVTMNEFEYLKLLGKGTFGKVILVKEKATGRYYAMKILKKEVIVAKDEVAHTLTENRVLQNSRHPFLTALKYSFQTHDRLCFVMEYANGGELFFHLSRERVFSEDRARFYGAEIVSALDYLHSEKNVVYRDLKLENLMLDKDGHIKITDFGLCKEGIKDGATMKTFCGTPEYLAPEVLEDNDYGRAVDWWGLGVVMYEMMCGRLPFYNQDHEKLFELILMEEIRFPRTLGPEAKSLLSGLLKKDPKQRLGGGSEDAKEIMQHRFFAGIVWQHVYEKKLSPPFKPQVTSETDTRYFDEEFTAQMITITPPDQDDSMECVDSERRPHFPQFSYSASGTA

As usually defined, the IC50 is the concentration that inhibits the measured activity by half. In the case of `Cc1cc(-c2ccnc3[nH]cc(Cl)c23)cc(F)c1[C@@]1(O)[C@H](C)CNC[C@@H]1C` [Compound 303, (3S,4s,5R)-4-(4-(3-chloro-1H-pyrrolo[2,3-b]pyridin-4-yl)-2-fluoro-6-methylphenyl)-3,5-dimethylpiperidin-4-ol], the concentration for half-maximal inhibition (IC50) at AKT (setting [1]) came out at 246 nM; on LATS2 (setting [1]), 3.3 nM; at LATS1 (setting [1]), 4.8 nM.

As for `CCc1cc(-c2ccnc3[nH]cc(F)c23)ccc1[C@@]1(O)[C@H](C)CN(C2CCS(=O)(=O)CC2)C[C@@H]1C` [Compound 306, 4-((3S,4s,5R)-4-(2-ethyl-4-(3-fluoro-1H-pyrrolo[2,3-b]pyridin-4-yl)phenyl)-4-hydroxy-3,5-dimethylpiperidin-1-yl)tetrahydro-2H-thiopyran 1,1-dioxide], the concentration for half-maximal inhibition (IC50) was found to be 31.2 nM on AKT (setting [1]), 5.4 nM at LATS2 (setting [1]) and 11.6 nM at LATS1 (setting [1]).

For `Cc1cc(-c2ccnc3[nH]cc(Cl)c23)cc(F)c1[C@@]1(O)[C@H](C)CN(C2CCS(=O)(=O)CC2)C[C@@H]1C` [Compound 307, 4-((3S,4s,5R)-4-(4-(3-chloro-1H-pyrrolo[2,3-b]pyridin-4-yl)-2-fluoro-6-methylphenyl)-4-hydroxy-3,5-dimethylpiperidin-1-yl)tetrahydro-2H-thiopyran 1,1-dioxide], the IC50 on AKT (setting [1]) came out at 206 nM; on LATS2 (setting [1]) it was 3.1 nM; at LATS1 (setting [1]), 4.2 nM.

Consider `Cc1cc(-c2ccnc3[nH]ccc23)cc(F)c1[C@@]1(O)[C@H](C)CN(C2CCS(=O)(=O)CC2)C[C@@H]1C` [Compound 308, 4-((3S,4s,5R)-4-(2-fluoro-6-methyl-4-(1H-pyrrolo[2,3-b]pyridin-4-yl)phenyl)-4-hydroxy-3,5-dimethylpiperidin-1-yl)tetrahydro-2H-thiopyran 1,1-dioxide], for which the IC50 stood at 1090 nM on AKT (setting [1]), 8.4 nM at LATS2 (setting [1]) and 10 nM on LATS1 (setting [1]).

Consider `COC(=O)c1c[nH]c2nccc(-c3ccc([C@@]4(O)[C@H](C)CN(C(=O)CN)C[C@@H]4C)c(C)c3)c12` [Compound 311, methyl 4-(4-((3S,4s,5R)-1-glycyl-4-hydroxy-3,5-dimethylpiperidin-4-yl)-3-methylphenyl)-1H-pyrrolo[2,3-b]pyridine-3-carboxylate], for which the IC50 came to 1040 nM on AKT (setting [1]), 3.6 nM on LATS2 (setting [1]) and 6.9 nM on LATS1 (setting [1]).

`Cc1cc(-c2ccnc3[nH]cc(C)c23)cc(F)c1[C@@]1(O)[C@H](C)CN(C(=O)CN)C[C@@H]1C` [Compound 314, 2-amino-1-((3S,4s,5R)-4-(2-fluoro-6-methyl-4-(3-methyl-1H-pyrrolo[2,3-b]pyridin-4-yl)phenyl)-4-hydroxy-3,5-dimethylpiperidin-1-yl)ethan-1-one]: the IC50 on AKT (setting [1]) is 249 nM; on LATS2 (setting [1]), 4.8 nM; at LATS1 (setting [1]), 1.6 nM.

Consider `CN[C@@H](C)C(=O)N1C[C@@H](C)[C@](O)(c2c(C)cc(-c3ccnc4[nH]cc(F)c34)cc2F)[C@@H](C)C1` [Compound 315, (S)-1-((3S,4R,5R)-4-(2-fluoro-4-(3-fluoro-1H-pyrrolo[2,3-b]pyridin-4-yl)-6-methylphenyl)-4-hydroxy-3,5-dimethylpiperidin-1-yl)-2-(methylamino) propan-1-one], for which the IC50 on AKT (setting [1]) came to 1350 nM; at LATS2 (setting [1]) it was 5.7 nM; on LATS1 (setting [1]), 11.6 nM.

In the case of `CN[C@H](C)C(=O)N1C[C@@H](C)[C@](O)(c2c(C)cc(-c3ccnc4[nH]cc(F)c34)cc2F)[C@@H](C)C1` [Compound 316, (R)-1-((3S,4S,5R)-4-(2-fluoro-4-(3-fluoro-1H-pyrrolo[2,3-b]pyridin-4-yl)-6-methylphenyl)-4-hydroxy-3,5-dimethylpiperidin-1-yl)-2-(methylamino) propan-1-one], the IC50 came out at 1370 nM at AKT (setting [1]), 6.8 nM on LATS2 (setting [1]) and 12 nM at LATS1 (setting [1]).

For the compound `Cc1cc(-c2ccnc3[nH]cc(Cl)c23)cc(F)c1[C@@]1(O)[C@H](C)CN(C(=O)CN)C[C@@H]1C` [Compound 317, 2-amino-1-((3S,4s,5R)-4-(4-(3-chloro-1H-pyrrolo[2,3-b]pyridin-4-yl)-2-fluoro-6-methylphenyl)-4-hydroxy-3,5-dimethylpiperidin-1-yl)ethan-1-one], the IC50 on AKT (setting [1]) was determined as 186 nM; on LATS2 (setting [1]) it was 3.8 nM; at LATS1 (setting [1]) it was 7.6 nM.

As to `Cc1cc(-c2ccnc3[nH]cc(-c4cccnc4)c23)cc(F)c1[C@@]1(O)[C@H](C)CN(C(=O)CN)C[C@@H]1C` [Compound 318, 2-amino-1-((3S,4s,5R)-4-(2-fluoro-6-methyl-4-(3-(pyridin-3-yl)-1H-pyrrolo[2,3-b]pyridin-4-yl)phenyl)-4-hydroxy-3,5-dimethylpiperidin-1-yl)ethan-1-one], the IC50 at AKT (setting [1]) was 1420 nM; on LATS2 (setting [1]) it was 1.3 nM; at LATS1 (setting [1]), 4.1 nM.

Take `NCC(O)(c1ccc(Cl)cc1)c1ccc(-c2ccnc3[nH]cc(Cl)c23)cc1` (stereo not drawn) [Compound 1003, 2-amino-1-(4-(3-chloro-1H-pyrrolo[2,3-b]pyridin-4-yl)phenyl)-1-(4-chlorophenyl) ethan-1-ol]: the IC50 on AKT (setting [2]) stood at 3.2 nM; at LATS2 (setting [2]) it was 12 nM; at LATS1 (setting [2]), 31.7 nM.

For the compound `NCC(O)(c1ccc(Cl)cc1)c1ccc(-c2ccnc3[nH]cc(Cl)c23)nc1` (stereo not drawn) [Compound 1010, 2-amino-1-(6-(3-chloro-1H-pyrrolo[2,3-b]pyridin-4-yl)pyridin-3-yl)-1-(4-chlorophenyl)ethan-1-ol], the values for the IC50 on AKT (setting [2]), on LATS2 (setting [2]) and at LATS1 (setting [2]) were less than 0.5 nM, less than 0.5 nM and 0.5 nM, respectively.

As to `NCC(O)(c1ccc(Cl)cc1)c1ccc(-c2ccnc3[nH]cc(-c4ccccc4)c23)nc1` (stereo not drawn) [Compound 1012, 2-amino-1-(4-chlorophenyl)-1-(6-(3-phenyl-1H-pyrrolo[2,3-b]pyridin-4-yl)pyridin-3-yl) ethan-1-ol], the IC50 at AKT (setting [2]) amounted to 126 nM; at LATS2 (setting [2]) it was 8.4 nM; on LATS1 (setting [2]), 8.5 nM.

Regarding `CC(=O)NCC(O)(c1ccc(Cl)cc1)c1ccc(-c2ccnc3[nH]ccc23)cc1` (stereo not drawn) [Compound 1014, N-(2-(4-(1H-pyrrolo[2,3-b]pyridin-4-yl)phenyl)-2-(4-chlorophenyl)-2-hydroxyethyl)acetamide], the IC50 worked out at 17.2 nM at AKT (setting [2]), 5.1 nM at LATS2 (setting [2]) and 3.7 nM at LATS1 (setting [2]).
